Consider 31 compounds from article PMC8286840, “Identifying SARS-CoV-2 antiviral compounds by screening for small molecule inhibitors of Nsp3 papain-like protease” (Biochemical Journal, 2021).

Structures can show the parent of a compound that is named as a salt. Where two headings read alike, the source gives them in different places.

The target in assay [1] is T1, SARS-CoV-2 PLpro (nsp3 1564–1878) (Severe acute respiratory syndrome coronavirus 2, UniProt P0DTD1). The experiment in a line: biochemical. Conditions: high concentration screen, read-out: % of control remaining. Also noted: FRET-quenched peptide (Pro3) cleavage by PLpro, 10 min pre-incubation, slope over 20 min, normalised to no-compound control.
For assay [2], the target named is T1, SARS-CoV-2 PLpro (nsp3 1564–1878). Briefly: biochemical. Also noted: FRET-quenched peptide (Pro3) cleavage by PLpro, 10 min pre-incubation, slope over 20 min, normalised to no-compound control. Conditions: low concentration screen, read-out: % of control remaining.

With `NCC(O)c1ccc(O)cc1` (racemic) [(+,-)-Octopamine HCl], in assay [1] (Well no.=5038), the remaining activity at 3.75 µM came to 103%. In addition, in assay [2] (Well no.=5038), the remaining activity at 1.25 µM is 101%.
On to `CCCC(=O)OC(CNC(C)(C)C)COc1nsnc1N1CCOCC1` (racemic) [(RS)-Butyryltimolol], for which the remaining activity at 3.75 µM in assay [1] (Well no.=7133) was 96.2%. For the same compound, in assay [2] (Well no.=7133), the remaining activity at 1.25 µM is 102%.
Regarding `CC(N)(C(=O)O)c1ccc(C(=O)O)cc1` (racemic) [(RS)-MCPG], the remaining activity at 3.75 µM in assay [1] (Well no.=8575) is 102%. Moreover, the remaining activity at 1.25 µM in assay [2] (Well no.=8575) was 109%.
For `CN1C[C@@H]2c3ccccc3Oc3ccc(Cl)cc3[C@H]2C1` (racemic) [Asenapine (hydrochloride)], the remaining activity at 3.75 µM in assay [1] (Well no.=7661) came out at 97%. The remaining activity at 1.25 µM in assay [2] (Well no.=7661) was determined as 101%.
With `CN1C[C@@H]2c3ccccc3Oc3ccc(Cl)cc3[C@H]2C1` (racemic) [Asenapine (maleate)], the remaining activity at 3.75 µM in assay [1] (Well no.=6513) worked out at 103%. Further, the remaining activity at 1.25 µM in assay [2] (Well no.=6513) amounted to 102%.
For the compound `C[C@H](Cc1ccc(OCC(=O)O)cc1)NC[C@H](O)c1cccc(Cl)c1` (racemic) [BRL 37344 sodium], the remaining activity at 3.75 µM in assay [1] (Well no.=183) was found to be 103%. Further, the remaining activity at 1.25 µM in assay [2] (Well no.=183) was determined as 98%.
As to `COc1cc(N)c(Cl)cc1C(=O)N[C@@H]1CCN(CCCOc2ccc(F)cc2)C[C@@H]1OC` (racemic) [Cisapride], in assay [1] (Well no.=6909), the remaining activity at 3.75 µM was determined as 90.7%. Also, the remaining activity at 1.25 µM in assay [2] (Well no.=6909) is 91.7%.
Consider `O=C(O)C(O)Cc1ccccc1` (racemic) [DL-3-Phenyllactic acid], for which, in assay [1] (Well no.=7171), the remaining activity at 3.75 µM came to 99.8%. Moreover, in assay [2] (Well no.=7171), the remaining activity at 1.25 µM was 102%.
`CNCC(O)c1ccc(O)c(O)c1` (racemic) [DL-Adrenaline]: the remaining activity at 3.75 µM in assay [1] (Well no.=5278) turned out to be 94.3%. In addition, the remaining activity at 1.25 µM in assay [2] (Well no.=5278) came out at 96.6%.
For the compound `CCCCS(=N)(=O)CCC(N)C(=O)O` (racemic) [DL-Buthionine-[S,R]-sulfoximine], the remaining activity at 3.75 µM in assay [1] (Well no.=363) was 93.8%. In assay [2] (Well no.=363), the remaining activity at 1.25 µM is 96.1%.
For the compound `NC1CONC1=O` (racemic) [DL-Cycloserine], the remaining activity at 3.75 µM in assay [1] (Well no.=136) amounted to 108%. The remaining activity at 1.25 µM in assay [2] (Well no.=136) came to 109%.
Regarding `NC(Cc1ccc(O)c(O)c1)C(=O)O` (racemic) [DL-Dopa], the remaining activity at 3.75 µM in assay [1] (Well no.=6391) was found to be 107%. The remaining activity at 1.25 µM in assay [2] (Well no.=6391) is 106%.
Regarding `CCCC(N)C(=O)O` (racemic) [DL-Norvaline], the remaining activity at 3.75 µM stood at 108% in assay [1] (Well no.=7399) and 109% in assay [1] (Well no.=8563). Besides, the remaining activity at 1.25 µM in assay [2] (Well no.=7399) was 108%.
`CCCCCCCCCCCCCCCC(=O)N[C@H](CN1CCOCC1)[C@H](O)c1ccccc1` (racemic) [DL-PPMP]: the remaining activity at 3.75 µM in assay [1] (Well no.=4591) turned out to be 100%. Moreover, the remaining activity at 1.25 µM in assay [2] (Well no.=4591) is 93.5%.
Turning to `O=C(O)CNC(=O)C(CS)Cc1ccccc1` (racemic) [DL-Thiorphan], the remaining activity at 3.75 µM in assay [1] (Well no.=1243) came out at 104%. Besides, the remaining activity at 1.25 µM in assay [2] (Well no.=1243) was 103%.
As for `NCCC[C@](N)(C(=O)O)C(F)F` (racemic) [DL-alpha-Difluoromethylornithine hydrochloride], in assay [1] (Well no.=500), the remaining activity at 3.75 µM came to 104%. Besides, the remaining activity at 1.25 µM in assay [2] (Well no.=500) was determined as 103%.
In the case of `CCCCCCCCCCCCCCC[C@H](O)[C@H](N)CO` (racemic) [DL-erythro-Dihydrosphingosine], the remaining activity at 3.75 µM in assay [1] (Well no.=628) amounted to 93.6%. Moreover, in assay [2] (Well no.=628), the remaining activity at 1.25 µM is 95.5%.
`COC(=O)C(N)Cc1ccc(Cl)cc1` (racemic) [DL-p-Chlorophenylalanine methyl ester hydrochloride]: the remaining activity at 3.75 µM in assay [1] (Well no.=364) turned out to be 91.1%. The remaining activity at 1.25 µM in assay [2] (Well no.=364) turned out to be 95.9%.
On to `N[C@H](C(=O)O)[C@H](O)C(=O)O` (racemic) [DL-threo-beta-hydroxyaspartic acid], for which the remaining activity at 3.75 µM in assay [1] (Well no.=418) was found to be 95.6%. The remaining activity at 1.25 µM in assay [2] (Well no.=418) amounted to 96.9%.
With `Oc1cc2c(cc1O)[C@H]1c3ccccc3CN[C@@H]1CC2` (racemic) [Dihydrexidine hydrochloride], in assay [1] (Well no.=645), the remaining activity at 3.75 µM was 91.3%. Moreover, in assay [2] (Well no.=645), the remaining activity at 1.25 µM worked out at 87.6%.
As to `O=C(O)CCC/C=C\C[C@@H]1[C@@H](/C=C/[C@@H](O)COc2cccc(C(F)(F)F)c2)[C@H](O)C[C@@H]1O` (racemic) [Fluprostenol], the remaining activity at 3.75 µM in assay [1] (Well no.=4528) is 99.8%. In addition, the remaining activity at 1.25 µM in assay [2] (Well no.=4528) is 96.4%.
As for `O=C(C[C@H]1NCCC[C@@H]1O)Cn1cnc2cc(Br)c(Cl)cc2c1=O` (racemic) [Halofuginone], the remaining activity at 3.75 µM in assay [1] (Well no.=7360) stood at 95.2%. In addition, the remaining activity at 1.25 µM in assay [2] (Well no.=7360) is 103%.
With `CC(=O)N1CCN(c2ccc(OC[C@@H]3CO[C@@](Cn4ccnc4)(c4ccc(Cl)cc4Cl)O3)cc2)CC1` (racemic) [Ketoconazole], the values for the remaining activity at 3.75 µM in assay [1] (Well no.=877) and in assay [1] (Well no.=1853) were 107% and 100%, respectively. Also, the remaining activity at 1.25 µM was 107% in assay [2] (Well no.=877) and 99.4% in assay [2] (Well no.=1853).
Take `CCN(CC)C(=O)[C@]1(c2ccccc2)C[C@@H]1CN` (racemic) [Milnacipran HCl]: the remaining activity at 3.75 µM in assay [1] (Well no.=4977) stood at 101%. Also, the remaining activity at 1.25 µM in assay [2] (Well no.=4977) came out at 102%.
For the compound `CN1C(=O)NC(Cc2c[nH]c3c(Cl)cccc23)C1=O` (racemic) [Necrostatin 2 (racemate)], the remaining activity at 3.75 µM in assay [1] (Well no.=6828) was 95%. In assay [2] (Well no.=6828), the remaining activity at 1.25 µM stood at 99.1%.
As for `CCCCCCCCCCCCCCCC(=O)OC(CC(=O)O)C[N+](C)(C)C` (racemic) [Palmitoyl-DL-Carnitine chloride], the remaining activity at 3.75 µM in assay [1] (Well no.=1098) amounted to 85.4%. In assay [2] (Well no.=1098), the remaining activity at 1.25 µM stood at 86.5%.
As for `CCOc1ccccc1O[C@H](c1ccccc1)[C@H]1CNCCO1` (racemic) [Reboxetine mesylate], in assay [1] (Well no.=4989), the remaining activity at 3.75 µM turned out to be 91.1%. Moreover, the remaining activity at 1.25 µM in assay [2] (Well no.=4989) was found to be 94.7%.
`C[C@@H](NCCc1ccc(O)cc1)[C@@H](O)c1ccc(O)cc1` (racemic) [Ritodrine (hydrochloride)]: the remaining activity at 3.75 µM in assay [1] (Well no.=6427) was found to be 91.3%. Besides, the remaining activity at 1.25 µM in assay [2] (Well no.=6427) was found to be 100%.
For `C[C@@H](NCCc1ccc(O)cc1)[C@@H](O)c1ccc(O)cc1` (racemic) [Ritodrine hydrochloride], the remaining activity at 3.75 µM in assay [1] (Well no.=1156) stood at 103%. For the same compound, the remaining activity at 1.25 µM in assay [2] (Well no.=1156) amounted to 97.7%.
With `COc1cc2c(cc1OC)[C@H]1CC(=O)[C@H](CC(C)C)CN1CC2` (racemic) [Tetrabenazine (Racemate)], the remaining activity at 3.75 µM in assay [1] (Well no.=8692) was determined as 93.1%. For the same compound, the remaining activity at 1.25 µM in assay [2] (Well no.=8692) turned out to be 95.2%.
Regarding `N[C@@H]1C[C@H]1c1ccccc1` (racemic) [Tranylcypromine], the remaining activity at 3.75 µM in assay [1] (Well no.=1564) was determined as 95.7%. Besides, the remaining activity at 1.25 µM in assay [2] (Well no.=1564) was determined as 95.7%.
